Read-outs that look alike come from different tables or passages of the source.
Key:
[1] = molecular target: T1, GST-FAK (N-terminal GST fusion with truncated human FAK (376-1052 (end) amino acids)) (Homo sapiens, UniProt Q05397); test: Biochemical enzyme assay for FAK activity (Caliper LC3000 mobility shift); settings: 100 uM ATP
T1 construct: truncated human FAK (376-1052 (end) amino acids)
Outline: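 Inhibitor dose series in DMSO were incubated 90 min at 25 °C with truncated GST-tagged human FAK (0.067 ng/µl) and FITC-labelled peptide substrate (1 µM), with ATP at 100 µM and FERM peptide at 1 mM (pH 7.5 HEPES). After EDTA quench, phosphorylated and unphosphorylated peptides were resolved electrophoretically. Percent conversion was fitted for IC50.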

[2] = molecular target: T2, focal adhesion kinase (FAK) autophosphorylation at tyrosine 397 in HT29 cells (Homo sapiens, UniProt Q05397); test: Cellular testing of FAK inhibitors: FAK autophosphorylation at tyrosine 397 in HT29 cells (Luminex-based assay); type: cell-based; settings: 30 min serum-free
T2 construct: endogenous in cells; host or cells: HT29
T2 sequence (Q05397 whole entry): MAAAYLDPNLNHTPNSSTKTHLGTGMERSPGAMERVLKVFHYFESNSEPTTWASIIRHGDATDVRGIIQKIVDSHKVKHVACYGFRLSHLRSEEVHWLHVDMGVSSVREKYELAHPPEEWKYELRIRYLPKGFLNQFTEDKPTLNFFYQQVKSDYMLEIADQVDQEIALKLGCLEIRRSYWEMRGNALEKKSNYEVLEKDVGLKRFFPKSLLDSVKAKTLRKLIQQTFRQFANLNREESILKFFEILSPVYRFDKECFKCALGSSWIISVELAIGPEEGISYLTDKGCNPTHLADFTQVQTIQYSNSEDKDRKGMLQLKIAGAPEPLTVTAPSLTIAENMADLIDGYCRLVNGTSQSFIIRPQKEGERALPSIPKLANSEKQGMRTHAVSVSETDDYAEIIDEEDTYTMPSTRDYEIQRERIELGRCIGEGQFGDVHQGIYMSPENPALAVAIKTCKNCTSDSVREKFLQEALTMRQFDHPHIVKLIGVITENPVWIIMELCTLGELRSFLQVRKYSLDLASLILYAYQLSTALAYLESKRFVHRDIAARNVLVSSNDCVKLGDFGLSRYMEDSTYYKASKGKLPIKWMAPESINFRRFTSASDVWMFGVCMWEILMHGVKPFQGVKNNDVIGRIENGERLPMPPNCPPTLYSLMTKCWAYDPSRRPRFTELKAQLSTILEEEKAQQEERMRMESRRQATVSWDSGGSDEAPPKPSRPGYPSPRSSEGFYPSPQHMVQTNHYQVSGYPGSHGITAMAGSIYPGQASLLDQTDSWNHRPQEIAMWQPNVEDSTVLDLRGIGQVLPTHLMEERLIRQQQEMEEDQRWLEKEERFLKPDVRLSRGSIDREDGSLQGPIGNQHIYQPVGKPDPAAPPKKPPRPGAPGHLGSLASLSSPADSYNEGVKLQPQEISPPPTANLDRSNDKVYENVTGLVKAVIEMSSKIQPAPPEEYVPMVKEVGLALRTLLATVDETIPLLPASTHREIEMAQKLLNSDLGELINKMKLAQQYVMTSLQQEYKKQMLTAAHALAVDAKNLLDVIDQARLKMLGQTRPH
Procedure: 2. Assay Principle for Celluar Testing of FAK Inhibitors
Cellular activity of focal adhesion kinase (FAK) is determined by the degree of FAK autophosphorylation at tyrosine 397 using a Luminex-based assay. HT29 cells are plated with 30,000 cells per well of a 96-well plate in 100 μl medium (90% DMEM/10% FCS). At the following day, test compounds are added in a serial dilution under serum-free conditions for 30 min. Then, cells were lysed with 90 μl lysis buffer (20 mM Tris/HCl pH 8.0, 150 mM NaCl, 1% NP40, 10% Glycerol, 1% Phosphatase-Inhibitor II, 20 mM […]-Glycerolphosphat, 0.1% Protease-Inhibitor Cocktail III, 0.01% Benzonase) and lysates were cleared by centrifugation through a 96-well filter plate (0.65 μm). Samples were incubated with Luminex-beads which were coupled with an anti-total FAK antibody overnight at 4° C. with under gentle agitation. For detection of phospho-Y397-FAK a phosphospecific antibody and a species specific PE-labeled secondary antibody are added. The amount of phospho-Y397-FAK is determined in a Luminex100 machine measuring 100 events per well within 60 seconds.
Counts from samples treated with a FAK reference inhibitor are subtracted as pharmacological blank. Counts from samples treated with test compounds are calculated as percent of control from solvent treated (0.3% DMSO) samples. IC50 values were determined using AssayExplorer software.

[3] = Table 3, phospho-Y397-FAK, read-out: HT-29 IC50
[4] = Table 4, phospho-Y397-FAK, read-out: IC50 HT-29

T1 sequence (Q05397 376-1052): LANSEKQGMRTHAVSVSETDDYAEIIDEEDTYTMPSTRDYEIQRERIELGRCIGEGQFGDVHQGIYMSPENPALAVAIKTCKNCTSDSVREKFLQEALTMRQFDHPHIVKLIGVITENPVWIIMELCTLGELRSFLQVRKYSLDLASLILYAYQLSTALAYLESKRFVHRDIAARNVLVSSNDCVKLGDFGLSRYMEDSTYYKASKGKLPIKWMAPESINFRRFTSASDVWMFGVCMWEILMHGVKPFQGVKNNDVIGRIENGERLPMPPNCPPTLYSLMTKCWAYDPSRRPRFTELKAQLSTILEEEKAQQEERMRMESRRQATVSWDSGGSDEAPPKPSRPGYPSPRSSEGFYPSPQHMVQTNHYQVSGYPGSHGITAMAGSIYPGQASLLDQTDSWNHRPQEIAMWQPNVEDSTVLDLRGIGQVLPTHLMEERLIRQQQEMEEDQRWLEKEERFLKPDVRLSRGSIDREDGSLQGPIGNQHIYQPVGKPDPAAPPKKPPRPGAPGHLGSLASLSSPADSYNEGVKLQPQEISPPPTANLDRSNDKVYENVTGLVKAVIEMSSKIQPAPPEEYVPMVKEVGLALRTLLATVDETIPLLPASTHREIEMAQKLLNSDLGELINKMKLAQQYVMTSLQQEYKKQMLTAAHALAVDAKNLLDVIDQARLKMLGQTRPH

Nc1ncc(Cl)cc1-c1nccc(NCc2ccc(F)cc2F)n1 [Compound 126, 2-(2-Amino-5-chloropyridin-3-yl)-N-(2,4-difluorobenzyl)pyrimidin-4-amine]
IC50 ([1]; Table 3, read-out: FAK IC50): < 100 nM | IC50 [2, 3]: 1000 to 10000 nM

Clc1cncc(-c2nccc(NCc3cccc4c3OCO4)n2)c1 [Compound 127, N-(1,3-Benzodioxol-4-ylmethyl)-2-(5-chloropyridin-3-yl)pyrimidin-4-amine]
IC50 ([1]; Table 3, read-out: FAK IC50): < 100 nM | IC50 [2, 3]: > 10000 nM

Nc1ncc(Cl)cc1-c1nccc(NCc2ccccc2C(F)(F)F)n1 [Compound 129, 2-(2-Amino-5-chloropyridin-3-yl)-N-[2-(trifluoromethyl)benzyl]pyrimidin-4-amine]
IC50 ([1]; Table 3, read-out: FAK IC50): < 100 nM | IC50 [2, 3]: 1000 to 10000 nM

CC(Nc1ccnc(-c2cncc(C(F)(F)F)c2)n1)c1ccccc1C(F)(F)F (centres unmarked) [Compound 130, N-{1-[2-(Trifluoromethyl)phenyl]ethyl}-2-[5-(trifluoromethyl)pyridin-3-yl]pyrimidin-4-amine]
IC50 ([1]; Table 3, read-out: FAK IC50): < 100 nM | IC50 [2, 3]: > 10000 nM

Clc1cncc(-c2nccc(NCc3cccc4nsnc34)n2)c1 [Compound 131, N-(2,1,3-Benzothiadiazol-4-ylmethyl)-2-(5-chloropyridin-3-yl)pyrimidin-4-amine]
IC50 ([1]; Table 3, read-out: FAK IC50): < 100 nM | IC50 [2, 3]: > 10000 nM

FC(F)(F)c1cncc(-c2nccc(NCc3ccc(Cl)cc3C(F)(F)F)n2)c1 [Compound 132, N-[4-Chloro-2-(trifluoromethyl)benzyl]-2-[5-(trifluoro-methyl)pyridin-3-yl]pyrimidin-4-amine]
IC50 ([1]; Table 3, read-out: FAK IC50): < 100 nM | IC50 [2, 3]: 1000 to 10000 nM

Nc1ncc(Cl)cc1-c1nccc(NCc2ccc(F)cc2C(F)(F)F)n1 [Compound 134, 2-(2-Amino-5-chloropyridin-3-yl)-N-[4-fluoro-2-(trifluoromethyl)benzyl]pyrimidin-4-amine]
IC50 ([1]; Table 3, read-out: FAK IC50): < 100 nM | IC50 [2, 3]: 1000 to 10000 nM

CN(C)CCNC(=O)c1cc(NCc2ccc(F)cc2F)nc(-c2cncc(C(F)(F)F)c2)n1 [Compound 148, 6-[(2,4-difluorophenyl)methylamino]-N-(2-dimethylaminoethyl)-2-[5-(trifluoromethyl)-3-pyridyl]pyrimidine-4-carboxamide]
IC50 ([1]; Table 4, read-out: IC50 FAK): < 100 nM | IC50 [2, 4]: 100 to 1000 nM

Fc1ccc(F)c(CNc2ccnc(-c3cncc(C(F)(F)F)c3)n2)c1 [Compound 154, N-[(2,5-difluorophenyl)methyl]-2-[5-(trifluoromethyl)-3-pyridyl]pyrimidin-4-amine]
IC50 ([1]; Table 4, read-out: IC50 FAK): 100 to 1000 nM | IC50 [2, 4]: 1000 to 10000 nM

O=C(NCCN1CCCC1=O)c1cc(NCc2ccc(F)cc2F)nc(-c2cncc(C(F)(F)F)c2)n1 [Compound 160, 6-[(2,4-difluorophenyl)methylamino]-N-[2-(2-oxopyrrolidin-1-yl)ethyl]-2-[5-(trifluoromethyl)-3-pyridyl]pyrimidine-4-carboxamide]
IC50 ([1]; Table 4, read-out: IC50 FAK): < 100 nM | IC50 [2, 4]: 100 to 1000 nM

Source: patent publication US9199962B2, “Substituted azaheterocycles for the treatment of cancer” (Merck Patent GmbH, priority 2011, dated 2015)
